Consider 1 compound from patent US20070185152A1, “Inhibitors of akt activity” (Smithkline Beecham Corporation, priority 2004, published 2007).

The term IC50 denotes the concentration that gives 50% inhibition.

For the assay, the target named is T1, AKT1 (Homo sapiens, UniProt P31749).
T1 construct: Insect cells expressing His-tagged AKT1 (aa 136-480) were lysed; His; made in house; host or cells: insect cells
Put plainly: AKT1 kinase inhibition assay (substrate phosphorylation, SPA). It counts as biochemical. Particulars: catalytic domain of AKT1; 10 nM activated AKT enzyme, 4 uM ATP, 8 uM peptide, 40 minutes at room temperature. The procedure:
Isolation and Purification of His-tagged AKT1 (aa 136-480)
Insect cells expressing His-tagged AKT1 (aa 136-480) were lysed in 25 mM HEPES, 100 mM NaCl, 20 mM imidazole; pH 7.5 using a polytron (5 mLs lysis buffer/g cells). Cell debris was removed by centrifuging at 28,000×g for 30 minutes. The supernatant was filtered through a 4.5-micron filter then loaded onto a nickel-chelating column pre-equilibrated with lysis buffer. The column was washed with 5 column volumes (CV) of lysis buffer then with 5 CV of 20% buffer B, where buffer B is 25 mM HEPES, 100 mM NaCl, 300 mM imidazole; pH 7.5. His-tagged AKT1 (aa 136-480) was eluted with a 20-100% linear gradient of buffer B over 10 CV. […]
Compounds of the present invention are tested for AKT 1, 2, and 3 protein serine kinase inhibitory activity in substrate phosphorylation assays. […] Substrate phosphorylation is detected by the following procedure:
Assays are performed in 384well U-bottom white plates. […] The reaction is stopped by the addition of 50 ul SPA bead mix (Dulbecco's PBS without Mg^2+ and Ca^2+, 0.1% Triton X-100, 5 mM EDTA, 50 uM ATP, 2.5 mg/ml Streptavidin-coated SPA beads.) The plate is sealed, the beads are allowed to settle overnight, and then the plate is counted in a Packard Topcount Microplate Scintillation Counter (Packard Instrument Co., Meriden, Conn.). […]

T1 sequence (P31749 136-480): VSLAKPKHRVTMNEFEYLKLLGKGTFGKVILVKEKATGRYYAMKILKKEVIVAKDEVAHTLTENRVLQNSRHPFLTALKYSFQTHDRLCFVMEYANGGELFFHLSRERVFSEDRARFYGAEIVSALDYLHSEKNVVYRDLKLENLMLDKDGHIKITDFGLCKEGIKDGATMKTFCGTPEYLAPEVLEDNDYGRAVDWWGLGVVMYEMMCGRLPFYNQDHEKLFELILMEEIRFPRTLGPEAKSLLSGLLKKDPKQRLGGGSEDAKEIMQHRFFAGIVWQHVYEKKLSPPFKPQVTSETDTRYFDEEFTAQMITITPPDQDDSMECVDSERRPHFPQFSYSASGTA

As for `Cc1n[nH]c2ccc(-c3cc(OC[C@@H](N)Cc4ccccc4)cnc3-c3ccccc3)cc12` [Example 1, (S)-1-Benzyl-2-[5-(3-methyl-1H-indazol-5-yl)-6-phenyl-pyridin-3-yloxy]-ethylamine], it took 182 nM to reach half-maximal inhibition (IC50).
